Results on seven molecules are retold here after US10781183B2, “Small molecule inducers of reactive oxygen species and inhibitors of mitochondrial activity” (The Regents of the University of Michigan, priority 2016, dated 2020).

Data set [1] has as its system MiaPaCa-2 cells. The data set can be described thus: MTT cytotoxicity assay, MiaPaCa-2. It is filed as cell-based. As to conditions: Homo sapiens, MTT assay, Mean ± SD, three independent experiments. As for the experimental part:
(§1) MiaPaCa-2, Panc-1 and BxPC-3 pancreatic cancer cell lines were obtained from the ATCC. Normal pancreatic cells HPDE and HPNE were kindly provided (Translational Oncology Program, University of […], Ann Arbor, Mich.). Gemcitabine resistant cell line MiaPaCa-2-GR (gemcitabine resistant) was kindly provided (Department of Pathology, Wayne State University, Detroit, Mich.). All cell lines were cultured as monolayer and maintained in RPMI1640 supplemented with 10% fetal bovine serum (FBS) in a humidified atmosphere with 5% CO2 at 37° C. MiaPaCa-2-GR culture was supplemented with 200 nM gemcitabine.
(§2) Cytotoxicity of compounds was evaluated with 3-(4,5-dimethylthiazol-2-yl)-2,5-diphenyltetrazolium bromide (MTT) assay. Cells were placed in 96-well plate at 3000-8000 cells/well. After overnight attachment, compounds were added to the wells at sequential dilutions (30 nM-10 μM for most cell lines). After 72 h treatment, MTT was added into the media to a final concentration of 300 μg/mL. Cells were incubated for 3 h at 37° C., and the insoluble formazan converted by viable cells were dissolved in 150 μL of DMSO. Absorbance at 570 nm was read by microplate reader (Molecular devices, Sunnyvale, Calif.), and inhibition of cell proliferation was calculated using the following formula: Inhibition of cell proliferation (%)=(1−ODtreatment/ODcontrol)×100%
In general terms: Tetrazolium assays rely on reduction of a dye to a coloured formazan, in cell work by metabolically active cells.

In the next data set the test system is Panc-1 cells. The data set can be described thus: MTT cytotoxicity assay, Panc-1. Format: cell-based. Particulars: Homo sapiens, three independent experiments. As for the experimental part:
as §1, §2

For the next data set, the system named is BxPC-3 cells. Nature of the data set: MTT cytotoxicity assay, BxPC-3. It is filed as cell-based. Particulars: Homo sapiens, three independent experiments. As for the experimental part: as §1, §2
Data set [2] has as its system MiaPaCa-2 cells. The data set can be described thus: ROS detection assay (H2DCFDA probe). It is filed as cell-based. As to conditions: MiaPaCa-2, 24 h treatment, 10 μM (FIG. 1C). As for the experimental part:
To quantify ROS induction by redox modulators, a high throughput ROS assay in 384-well plates using H2DCFDA as the ROS detection probe was developed (FIG. 1A).
Cells were detached by 0.05% trypsin-EDTA, neutralized, centrifuged (1200 rpm, 5 min) and resuspended in cell culture media. Suspension were then treated with 20 μM cell permeable H2DCFDA for 30 min at 37° C. Cells were then centrifuged (1200 rpm, 5 min) and washed with cell culture media to remove excess probe. After washing, cells were placed in black-wall 384-well plate at 20,000 cells/well, incubated for 30 min and treated by compounds at designated conditions. Fluorescent signal were then read at 493 nm/523 nm on BioTek H1 plate reader for ROS detection.

The mark [3] stands for this setting: MIA PaCa-2, 72 h, Table 1, 72 h.
[4] abbreviates: MIA PaCa-2, Table 2, read-out: IC 50 MiaPaCa-2.
The mark [5] stands for this setting: PANC-1, 72 h, Table 1, 72 h, Mean ± SD.
Where [6] appears, read: PANC-1, Table 2, Mean ± SD, read-out: IC 50 Panc-1.
Where [7] appears, read: BXPC-3, 72 h, Table 1, 72 h, Mean ± SD.
[8] abbreviates: BXPC-3, Table 2, Mean ± SD, read-out: IC 50 BxPC-3.

The melting point is the temperature of the solid-liquid transition.

Like-named read-outs stand apart in the source and are kept apart here.

`O=C1C(Nc2ccc(-c3ccc(F)cc3)cc2)=CC(=O)c2ncncc21` [QD334, 6-((4′-fluoro-[1,1′-biphenyl]-4-yl)amino)quinazoline-5,8-dione] registered a melting point of 285 to 289 °C. The IC50 in the data set on MiaPaCa-2 cells [1] (setting [3]) came to 3500 ± 1000 nM. In addition, the IC50 with MiaPaCa-2 cells [1] (setting [4]) is 3500 ± 1000 nM. Besides, in the data set with Panc-1 cells (setting [5]), the IC50 was found to be 3200 ± 800 nM. In the data set on Panc-1 cells (setting [6]), the IC50 stood at 3200 ± 800 nM. In the data set with BxPC-3 cells (setting [7]), this molecule displayed an IC50 of 4400 ± 900 nM. Besides, in the data set with BxPC-3 cells (setting [8]), the IC50 amounted to 4400 ± 900 nM.

On to `COC(=O)c1ccc(NC2=CC(=O)c3ncncc3C2=O)cc1` [QD331, Methyl 4-((5,8-dioxo-5,8-dihydroquinazolin-6-yl)amino)benzoate], for which the melting point fell in the range of 226 to 230 °C. In the data set with MiaPaCa-2 cells [1] (setting [3]), the IC50 is 2200 ± 400 nM. The IC50 with MiaPaCa-2 cells [1] (setting [4]) was determined as 2200 ± 400 nM. In addition, the IC50 with Panc-1 cells (setting [5]) stood at 1100 ± 400 nM. The IC50 in the data set on Panc-1 cells (setting [6]) was 1100 ± 400 nM. In the data set with BxPC-3 cells (setting [7]), this molecule returned an IC50 of 5800 ± 300 nM. Also, the IC50 in the data set with BxPC-3 cells (setting [8]) is 5800 ± 300 nM.

In the case of `CCc1ccc(-c2ccc(NC3=CC(=O)c4ncncc4C3=O)cc2)cc1` [QD335, 6-((4′-ethyl-[1,1′-biphenyl]-4-yl)amino)quinazoline-5,8-dione], the melting point is 232 °C. In addition, the “ROS induction compared with lead compound QD232” value in the data set on MiaPaCa-2 cells [2] is on record as “significantly higher ROS induction than the lead compound QD232”. In the data set with MiaPaCa-2 cells [1] (setting [3]), this molecule registered an IC50 of 2000 ± 100 nM. In addition, the IC50 with MiaPaCa-2 cells [1] (setting [4]) came out at 2000 ± 100 nM. Besides, the IC50 with Panc-1 cells (setting [5]) was determined as 1200 ± 100 nM. The IC50 in the data set on Panc-1 cells (setting [6]) was 1200 ± 100 nM. The molecule also yielded an IC50 in the data set on BxPC-3 cells (setting [7]) of 3100 ± 700 nM. Moreover, in the data set on BxPC-3 cells (setting [8]), the IC50 was determined as 3100 ± 700 nM.

Molecule `O=C1C(Nc2cccc(B(O)O)c2)=CC(=O)c2ncncc21` [QD333, (3-((5,8-dioxo-5,8-dihydroquinazolin-6-yl)amino)phenyl)boronic acid] displayed a melting point of 208 to 210 °C. Besides, in the data set on MiaPaCa-2 cells [1] (setting [3]), the IC50 was above 10000 nM. Further, the IC50 in the data set with MiaPaCa-2 cells [1] (setting [4]) was above 10000 nM. This molecule also gave an IC50 in the data set with Panc-1 cells (setting [5]) of 9000 ± 1000 nM. Also, the IC50 in the data set with Panc-1 cells (setting [6]) is 9000 ± 1000 nM. This molecule gave an IC50 with BxPC-3 cells (setting [7]) above 10000 nM. The IC50 in the data set with BxPC-3 cells (setting [8]) was above 10000 nM.

`COc1ccc(-c2ccc(NC3=CC(=O)c4ncncc4C3=O)cc2)cc1` [QD336, 6-((4′-methoxy[1,1′-biphenyl]-4-yl)amino)quinazoline-5,8-dione] displayed a melting point of 270 to 272 °C. Besides, in the data set on MiaPaCa-2 cells [1] (setting [3]), the IC50 was found to be 2100 ± 500 nM. Also, in the data set with MiaPaCa-2 cells [1] (setting [4]), the IC50 came out at 2100 ± 500 nM. The same molecule yielded an IC50 with Panc-1 cells (setting [5]) of 2300 ± 300 nM. In the data set with Panc-1 cells (setting [6]), the IC50 came out at 2300 ± 300 nM. This molecule also showed an IC50 in the data set on BxPC-3 cells (setting [7]) of 3500 ± 500 nM. Also, the IC50 in the data set on BxPC-3 cells (setting [8]) was determined as 3500 ± 500 nM.

The molecule `Nc1cccc(C(=O)NCCC[P+](c2ccccc2)(c2ccccc2)c2ccccc2)c1.[Br-]` [QD358, (3-(3-aminobenzamido)propyl)triphenylphosphonium bromide] showed a melting point of 223 °C. The IC50 in the data set with MiaPaCa-2 cells [1] (setting [4]) is above 30000 nM. Moreover, the IC50 in the data set with Panc-1 cells (setting [5]) is above 30000 nM. Also, the IC50 with Panc-1 cells (setting [6]) was above 30000 nM. Further, the IC50 in the data set with BxPC-3 cells (setting [8]) was above 30000 nM.

`O=C1C(NCc2ccc(F)cc2)=CC(=O)c2ncncc21` [QD356, 6-((4-fluorobenzyl)amino)quinazoline-5,8-dione] registered a melting point of 203 °C. In the data set on MiaPaCa-2 cells [1] (setting [3]), this molecule showed an IC50 of 1700 ± 200 nM. Besides, the IC50 in the data set with MiaPaCa-2 cells [1] (setting [4]) amounted to 1700 ± 200 nM. Also, the IC50 with Panc-1 cells (setting [5]) is 1000 ± 100 nM. The IC50 with Panc-1 cells (setting [6]) came out at 1000 ± 100 nM. The molecule further had an IC50 in the data set with BxPC-3 cells (setting [7]) of 1400 ± 200 nM. Further, in the data set on BxPC-3 cells (setting [8]), the IC50 was 1400 ± 200 nM.
